From ChEMBL document CHEMBL1130724, “Synthesis and biological activity of [Tic5] didemnin B” (Bioorg Med Chem Lett, 1998) come the findings set out here.

The assay is filed under the species Oryctolagus cuniculus. Nature of the assay: Compound was tested for inhibitory effect on protein biosynthesis in rabbit reticulocyte lysates. Type of assay: functional.

Molecules are shown by their SMILES.

`CC[C@H](C)[C@H]1NC(=O)[C@@H](NC(=O)[C@@H](CC(C)C)N(C)C(=O)C2CCCN2C(=O)[C@H](C)O)[C@@H](C)OC(=O)[C@@H]2Cc3ccccc3CN2C(=O)[C@@H]2CCCN2C(=O)[C@H](CC(C)C)NC(=O)[C@@H](C)C(=O)[C@H](C(C)C)OC(=O)C[C@@H]1O` (some centres not stated) gave a concentration for half-maximal inhibition (IC50) of 2.68 µM.
For `CC[C@H](C)[C@H]1NC(=O)[C@@H](NC(=O)[C@@H](CC(C)C)N(C)C(=O)C2CCCN2C(=O)[C@H](C)O)[C@@H](C)OC(=O)[C@H](CC(C)C)N(C)C(=O)[C@@H]2CCCN2C(=O)[C@H](CC(C)C)NC(=O)[C@@H](C)C(=O)[C@H](C(C)C)OC(=O)C[C@@H]1O` (some centres not stated) [[N-ME LEU5] DIDEMNIN B] the value was 9 µM.

A word on the IC50: it is the point on the concentration scale where inhibition reaches its midpoint. Low readings indicate greater potency in that assay, high ones weaker potency in that assay.
